Earlier results in patent US7700612B2, “Di-ester prodrugs of camptothecin, process for their preparation and their therapeutical applications” (Abraxis BioScience, LLC, priority 2003, dated 2010).

Key:
[1] = animal models; J. Med. Chem. 23, 554 (1980)
mouse leukemia L 1210 = conditions: initial test, Wall et al.

Structure (SMILES)	potency relative to the parent camptothecin [1]	solubility in water	activity against mouse leukemia L 1210 system (mouse leukemia L 1210)
CC[C@@](O)(C(=O)[O-])c1cc2n(c(=O)c1CO)Cc1cc3ccccc3nc1-2.[Na+] [CPT sodium carboxylate]	10-20%	water-soluble	
CC[C@@]1(O)C(=O)OCc2c1cc1n(c2=O)Cc2cc3ccccc3nc2-1 [Camptothecin]		insoluble	active
